Reference: US10323283B2, “Editing profiling of PDE8A pre-mRNA: use as specific biomarker of ADARs activities in human tissues to diagnose and to predict and assess therapeutic efficacy and/or efficiency or potential drug side effects” (ALCEDIAG, priority 2010, dated 2019)

What was measured:
Assay type in all cases: cell-based, human
PDE8A pre-mRNA = PDE8A pre-mRNA editing profile by nested RT-PCR and CE-SSCP in SH-SY5Y cells; details: increased concentrations of IFNα, 48 hours
Method: The SH-SY5Y Human neuroblastoma cell line was purchased from ECACC (ref 94030304, lot number 06H021). Cells were cultured in high glucose D-MEM medium (Sigma, ref D6546) supplemented with 10% dialysed FCS (PAA, ref A15-507, lot number A50708-0050), 2 mM Glutamine (Sigma, G7513) and a 1× mix of Antibiotic-Antimycotic Stabilized (Sigma, ref A5955) at 37° C. under a humidified atmosphere of 5% CO2. The day preceding hIFNα treatment, SH-SY5Y cells were plated in 8 different 6-well plates at a density of 7.10^5 cells/well. On the next day, culture medium was removed and cells were incubated for 48 hours with hIFNα at the correct concentration (PBL biomedical laboratories, ref 111001-1, lot number 3734). On the day of the experiment, the hIFNα stock solution (10^5 I.U/ml in sterile 1×D-PBS stocked at −80° C.) was thawed on ice and then extemporaneously diluted in D-MEM supplemented with FCS and Antibiotic-Antimycotic, at the final concentrations of […]. In each well, cells were treated with 2 ml of the working solution. Aliquots of the stock-solution were used only once. […]
Human total blood RNA was extracted with the PAXgene Blood RNA kit 50 (PreAnalytiX, ref 762174) according to manufacturer's instructions. […] Aliquots (5 μl) of the amplification products were used to check the quantity and the quality of amplicons on a 2% agarose analytic gel. […]

[1] = tested on: PDE8A4 isoform of the protein; assay: Western blot analysis of PDE8A protein concentrations in SH-SY5Y cells after IFNα; details: IFNα application during 24 hours
Method: (§1) The SH-SY5Y Human neuroblastoma cell line was purchased from ECACC (ref 94030304, lot number 06H021). Cells were cultured in high glucose D-MEM medium (Sigma, ref D6546) supplemented with 10% dialysed FCS (PAA, ref A15-507, lot number A50708-0050), 2 mM Glutamine (Sigma, G7513) and a 1× mix of Antibiotic-Antimycotic Stabilized (Sigma, ref A5955) at 37° C. under a humidified atmosphere of 5% CO2. The day preceding hIFNα treatment, SH-SY5Y cells were plated in 8 different 6-well plates at a density of 7.10^5 cells/well. […]
After culture medium elimination, SH-SY5Y cells were washed two times with a phosphate buffer solution (PBS, Gibco Invitrogen Corporation), scraped and solubilized for 2 hr at 4° C. in solubilization buffer containing 150 mM NaCl, 5 mM EDTA, 1% Triton X-100, 0.1% sodium deoxycholate, 10 mM Tris-HCl [pH 8.0] and supplemented with protease inhibitors (1 mM phenylmethylsulfonyl fluoride, and one tablet of Complete™ mini protease inhibitors cocktail [Roche]). […] Proteins present in the supernatant (clear lysate) were quantified with a Qubit Fluorometer (Invitrogen, Q32857) and the Quant-IT Protein assay (Invitrogen, ref Q33211). […]

ADAR1a-p150 = assay: Quantification of ADAR1a-p150 mRNA expression by real-time PCR in SH-SY5Y cells; details: IFNα application during 24 hours
Method: as §1
In order to quantify levels of ADAR1a mRNA expression in SH-SY5Y cells first-strand cDNA was synthesized by reverse transcription (as described above) and subjected to TaqMan quantitative Real-Time PCR analysis (Applied Biosystems,). The probe and primers used for the quantitative PCRs were from Applied Biosystems (Gene Expression Assays, Assay-On-Demand): • -ADAR1a: ref Hs 01020780_ml
Human GAPDH (product no. 4326317E; Applied Biosystems) was included in each multiplex PCR as an internal control. […] Quantitation of target gene expression in all samples was normalized to GAPDH expression by the equation Ct (target)−Ct (GAPDH)=ΔCt, where Ct is the threshold cycle number. The mean ΔCt value of samples from untreated cells was determined and used as a reference point for the samples corresponding to IFNα treated cells. […]

## interferon alpha [IFNα]
PDE8A pre-mRNA
  proportions of isoform B in the editing profile of PDE8A RNA: relative increase
[1]; from best fit
  maximal effect on PDE8A4 isoform, % of the steady state concentration found in controls: −47%
[1]; western blot, ±SD, R^2 of the fit=0.7
  estimated EC 50% of the effect on PDE8A4 isoform concentration versus concentrations of IFNα: 3.3±4.4 IU/ml
ADAR1a-p150
  RQ versus GAPDH of the ADAR1a-p150: induced
